According to patent publication US20230135093A1, “TRIAZOLYL DERIVATIVES AS GABA A ALPHA5 PAM” (Hoffmann-La Roche Inc., priority 2020, published 2023):

Tests used:
h-GABA-A α5β3γ2 [1] = biological target: T1, h-GABA-A α5β3γ2 (Homo sapiens, UniProt P18507+P31644); assay: Two-electrode voltage clamp electrophysiology in Xenopus oocytes expressing GABAA receptors (modulation of GABA EC20 current); type: cell-based; settings: Table 1; for Efficacy (GABA) %: % modulation of GABA EC20 = 100*(Fold increase-1); for Fold increase h-GABA-A α5β3γ2 oocyte: Xenopus oocytes, GABA EC20, test compound at approximatively 30 fold its Ki
T1 construct: expressed in transfected cells; host or cells: Xenopus laevis oocytes, micro-injected with subunit RNA
Description: Xenopus laevis oocytes at maturation stages V-VI were used for the expression of cloned mRNA encoding GABAA receptor subunits. Oocytes ready for RNA micro-injection were bought from Ecocyte, Castrop-Rauxel, Germany and stored in modified Barth's medium (composition in mM: NaCl 88, KCl 1, NaHCO3 2.4, HEPES 10, MgSO4 0.82, CaNO3 0.33, CaCl2 0.33, pH=7.5) at 20° C. until the experiment.
Oocytes were plated in 96-well plates to be used in an automated instrument (Robo-ocyte, MultiChannelSystems, Reutlingen, Germany) for microinjection and electrophysiological recordings. Approximately 50 nl of an aqueous solution containing the RNA transcripts for the subunits of the desired GABAA receptor was injected into each oocyte. RNA concentrations ranged between 0.3 and 16 ng/μl/subunit and were adjusted in pilot experiments to obtain GABA responses of a suitable size and a maximal effect of the reference modulator, Beta-CCM (3-CCM), a betacarboline negative allosteric modulator (NAM) at the GABAA receptor benzodiazepine (BZD) binding site or Midazolam, a benzodiazepine positive allosteric modulator (PAM) at the GABAA receptor benzodiazepine (BZD) binding site. The concentration of the γ2 subunit encoding RNA usually was 5- to 10-fold higher than the RNAs encoding the other subunits. Oocytes were kept in modified Barth's medium (composition in mM: NaCl 88, KCl 1, NaHCO3 4, HEPES 10, MgSO4 0.82, CaNO3 0.33, CaCl2 0.33, pH=7.5) at 20° C. until the experiment.
Electrophysiological experiments were performed on days 3 to 5 after the micro-injection of mRNA. During the experiment the oocytes were constantly superfused by a solution containing (in mM) NaCl 90, KCl 1, HEPES 5, MgCl2 1, CaCl2 1 (pH 7.4). Oocytes were impaled by two glass microelectrodes (resistance: 0.4 MQ) which were filled with a solution containing KCl 1M+K-acetate 1.5 M and voltage-clamped to −80 mV. The recordings were performed at room temperature using the Roboocyte two-electrode voltage clamp system (Multichannelsystem). After an initial equilibration period of 1.5 min GABA was added for 1.5 min at a concentration evoking approximately 20% of a maximal current response (EC20). After another rest interval of 2.5 min GABA was again added evoking a response of similar amplitude and shape. 0.5 min after the onset of this second GABA application the test compound, at a concentration corresponding to approximatively 30 fold its Ki, was added while GABA was still present. Current traces were recorded at a digitization rate of 10 Hz during and shortly before and after the GABA application.
Each compound and concentration was tested on at least 3 oocytes. Different oocytes were used for different compound concentrations. β-CCM, a negative allosteric modulator, or Midazolam, a positive allosteric modulators, were tested on a few (3-6) oocytes on each 96-well plate for a positive control at a maximally effective. β-CCM inhibited the GABA-evoked current by approximatively 50% (Fold increase 0.5), while Midazolam potentiated the GABA-induced current by approximatively 150% (Fold increase 2.5).
For the analysis, the digitized current traces of the first and second GABA response were superimposed and, if necessary, rescaled to equal maximal amplitudes. The ratio between the two responses during the time interval of test compound application was calculated point by point. The extremum of the resulting “ratio trace” was taken as the efficacy (“Fold increase”) of the compound expressed as “% modulation of GABA EC20” (100*(Fold increase-1)).

h-GABA-A α5β3γ2 [2] = biological target: T1, h-GABA-A α5β3γ2; assay: [3H]flumazenil competition binding assay on membranes of HEK293 cells expressing GABAA receptors; settings: Table 1; displacement of [3H]-Flumazenil (0.5 nM), HEK293 cells expressing human receptors, means of two determinations
Description: The affinity of compounds at GABAA receptor subtypes was measured by competition for [3H]flumazenil (85 Ci/mmol; Roche) binding to HEK293 cells expressing rat (stably transfected) or human (transiently transfected) receptors of composition α1β3γ2, α2β3γ2, α3β3γ2 and α5β3γ2.
Cell pellets were suspended in Krebs-tris buffer (4.8 mM KCl, 1.2 mM CaCl2, 1.2 mM MgCl2, 120 mM NaCl, 15 mM Tris; pH 7.5; binding assay buffer), homogenized by polytron for ca. 20 sec on ice and centrifuged for 60 min at 4° C. (50000 g; Sorvall, rotor: SM24=20000 rpm). The cell pellets were resuspended in Krebs-tris buffer and homogenized by polytron for ca. 15 sec on ice. Protein was measured (Bradford method, Bio-Rad) and aliquots of 1 mL were prepared and stored at −80° C.
Radioligand binding assays were carried out in a volume of […] (96-well plates) which contained […] of cell membranes, [^3H]-Flumazenil at a concentration of 1 nM for α1, α2, α3 subunits and 0.5 nM for α5 subunits and the test compound in the range of […]. Nonspecific binding was defined by 10^−5 M diazepam and typically represented less than 5% of the total binding. Assays were incubated to equilibrium for 1 hour at 4° C. and harvested onto GF/C uni-filters (Packard) by filtration using a Packard harvester and washing with ice-cold wash buffer (50 mM Tris; pH 7.5). After drying, filter-retained radioactivity was detected by liquid scintillation counting. Ki values were calculated using Excel-Fit (Microsoft) and are the means of two determinations.
In a preferred embodiment the compounds of the invention are binding selective for the α5 subunit relative to the α1, α2 and α3 subunit. Representative test results, obtained by the above described assay measuring binding affinity to HEK293 cells expressing human (h) receptors, are shown in the Table below.

Efficacy (GABA) % (h-GABA-A α5β3γ2 [1]) [%] | Fold increase h-GABA-A α5β3γ2 oocyte (h-GABA-A α5β3γ2 [1]) | Ki (h-GABA-A α5β3γ2 [2]) [nM] | Structure (SMILES)
85 | 1.85 | 44.2 | Cc1nnn(-c2ccc(Cl)cc2F)c1Cn1ncc(N2CC(OCC(F)(F)F)C2)cc1=O [Example 34, 2-[[3-(4-chloro-2-fluoro-phenyl)-5-methyl-triazol-4-yl]methyl]-5-[3-(2,2,2-trifluoro-ethoxy)azetidin-1-yl]pyridazin-3-one]
130 | 2.3 | 10.4 | Cc1nnn(-c2ccc(Cl)cc2F)c1Cn1ncc(N2CCO[C@@H](C)C2)cc1=O [Example 35, 2-[[3-(4-chloro-2-fluoro-phenyl)-5-methyl-triazol-4-yl]methyl]-5-[(2S)-2-methylmorpholin-4-yl]pyridazin-3-one]
106 | 2.06 | 12.4 | Cc1nnn(-c2ccc(Cl)cc2F)c1Cn1ncc(N2CCO[C@H](C)C2)cc1=O [Example 36, 2-[[3-(4-chloro-2-fluoro-phenyl)-5-methyl-triazol-4-yl]methyl]-5-[(2R)-2-methylmorpholin-4-yl]pyridazin-3-one]
78 | 1.78 | 5.6 | Cc1nnn(-c2ccc(Cl)cc2F)c1Cn1ncc(N2CCC(n3ccnc3C)CC2)cc1=O [Example 38, 2-[[3-(4-chloro-2-fluoro-phenyl)-5-methyl-triazol-4-yl]methyl]-5-[4-(2-methylimidazol-1-yl)-1-piperidyl]pyridazin-3-one]
108 | 2.08 | 11.5 | COc1ncccc1N1CCN(c2cnn(Cc3c(C)nnn3-c3ccc(Cl)cc3F)c(=O)c2)CC1 [Example 39, 2-[[3-(4-chloro-2-fluoro-phenyl)-5-methyl-triazol-4-yl]methyl]-5-[4-(2-methoxy-3-pyridyl)piperazin-1-yl]pyridazin-3-one]
103 | 2.03 | 20.2 | CC(C)N1CCN(c2cnn(Cc3c(-c4ccc(Cl)cc4)nnn3C)c(=O)c2)C[C@@H]1C [Example 40, 2-[[5-(4-chlorophenyl)-3-methyl-triazol-4-yl]methyl]-5-[(3S)-4-isopropyl-3-methyl-piperazin-1-yl]pyridazin-3-one]
47 | 1.47 | 37.7 | CCOC1CN(c2cnn(Cc3c(-c4ccc(Cl)cc4)nnn3C)c(=O)c2)C1 [Example 41, 2-[[5-(4-chlorophenyl)-3-methyl-triazol-4-yl]methyl]-5-(3-ethoxyazetidin-1-yl)pyridazin-3-one]
71 | 1.71 | 18.3 | CC(C)O[C@@H]1CCN(c2cnn(Cc3c(-c4ccc(Cl)cc4F)nnn3C)c(=O)c2)C1 [Example 42, 2-((5-(4-chloro-2-fluoro-phenyl)-3-methyl-triazol-4-yl)methyl)-5-((3R)-3-isopropoxy-pyrrolidin-1-yl)pyridazin-3-one]
97 | 1.97 | 7.9 | Cn1nnc(-c2ccc(Cl)cc2F)c1Cn1ncc(N2CC(Oc3ccccn3)C2)cc1=O [Example 43, 2-((5-(4-chloro-2-fluoro-phenyl)-3-methyl-triazol-4-yl)methyl)-5-(3-(2-pyridyl-oxy)azetidin-1-yl)pyridazin-3-one]
82 | 1.82 | 4.4 | CC(C)N1CCN(c2cnn(Cc3c(-c4ccc(Cl)cc4F)nnn3C)c(=O)c2)C[C@@H]1C [Example 44, 2-((5-(4-chloro-2-fluoro-phenyl)-3-methyl-triazol-4-yl)methyl)-5-((3S)-4-isopropyl-3-methyl-piperazin-1-yl)pyridazin-3-one]
115 | 2.15 | 1.4 | C[C@H]1CN(c2cnn(Cc3c(-c4ccc(Cl)cc4F)nnn3C)c(=O)c2)CCO1 [Example 45, 2-((5-(4-chloro-2-fluoro-phenyl)-3-methyl-triazol-4-yl)methyl)-5-((2S)-2-methylmorpholin-4-yl)pyridazin-3-one]
86 | 1.86 | 1.6 | C[C@@H]1CN(c2cnn(Cc3c(-c4ccc(Cl)cc4F)nnn3C)c(=O)c2)CCO1 [Example 46, 2-((5-(4-chloro-2-fluoro-phenyl)-3-methyl-triazol-4-yl)methyl)-5-((2R)-2-methylmorpholin-4-yl)pyridazin-3-one]
130 | 2.3 | 13.2 | CCc1nccn1C1CCN(c2cnn(Cc3c(C)nnn3-c3ccc(Cl)cc3F)c(=O)c2)CC1 [Example 47, 2-[[3-(4-chloro-2-fluoro-phenyl)-5-methyl-triazol-4-yl]methyl]-5-[4-(2-ethylimidazol-1-yl)-1-piperidyl]pyridazin-3-one]
52 | 1.52 | 8.5 | CC(C)OC1CN(c2cnn(Cc3c(-c4ccc(Cl)cc4F)nnn3C)c(=O)c2)C1 [Example 48, 2-((5-(4-chloro-2-fluoro-phenyl)-3-methyl-triazol-4-yl)methyl)-5-(3-isopropoxyazetidin-1-yl)pyridazin-3-one]
67 | 1.67 | 5.2 | Cn1nnc(-c2ccc(Cl)cc2F)c1Cn1ncc(N2CC(OCC(F)(F)F)C2)cc1=O [Example 50, 2-((5-(4-chloro-2-fluoro-phenyl)-3-methyl-triazol-4-yl)methyl)-5-(3-(2,2,2-trifluoro-ethoxy)azetidin-1-yl)pyridazin-3-one]
94 | 1.94 | 21.4 | CCCOC1CN(c2cnn(Cc3c(-c4ccc(Cl)cc4F)nnn3C)c(=O)c2)C1 [Example 51, 2-((5-(4-chloro-2-fluoro-phenyl)-3-methyl-triazol-4-yl)methyl)-5-(3-propoxyazetidin-1-yl)pyridazin-3-one]

Structure (SMILES) | Efficacy (GABA) % (h-GABA-A α5β3γ2 [1]) [%] | Fold increase h-GABA-A α5β3γ2 oocyte (h-GABA-A α5β3γ2 [1]) | Ki (h-GABA-A α5β3γ2 [2]) [nM]
Cn1nnc(-c2ccc(Cl)cc2F)c1Cn1ncc(N2CC(OC3CCC3)C2)cc1=O [Example 49, 2-((5-(4-chloro-2-fluoro-phenyl)-3-methyl-triazol-4-yl)methyl)-5-(3-(cyclobutoxy)azetidin-1-yl)pyridazin-3-one] | 73 | 1.73 | 8.3
